Measurements reported in patent US20240261292A1, “COMBINATION THERAPIES” (Janssen Pharmaceutica NV, priority 2021, published 2024).

Target: hERG (Homo sapiens (Human), UniProt Q12809)
Test: hERG current in hERG-transfected HEK293 cells (Protocol 2, SyncroPatch 384PE)
Type: cell-based
Settings: Protocol 2, HEK293 cells
Protocol: The compound, vehicle control and positive control were tested on hERG-transfected HEK293 cells. A human embryonic kidney cell line (HEK293) with a stable transfection of hERG (Zhou Z et al. Biophysical Journal 1998. 74, 230-241; McDonald T. V. et al, Nature 1997. 388, 289-292) was used (University of Wisconsin, Madison, USA). The cells were kept in culture in MEM (Minimum Essential Medium, Gibco) which was supplemented with (amounts indicated added to 500 ml MEM): 5 ml L-Glutamine-Penicillin-Streptomycin (Sigma), 50 ml Fetal Bovine serum (Bio-Whittaker), 5 ml Non-essential Amino Acids 100× (Gibco), 5 mil sodium pyruvate 100 mM (Gibco) and 4 ml geneticin 50 mg/ml (Gibco) using T175 flasks.
Cells were harvested as described below using Accumax™ (Sigma) as the dissociating reagent. Cells were then resuspended in a mixture of 33% DMEM/F12 (Dulbecco's Modified Eagle Medium/Nutrient Mixture F-12—Sigma) media/67% extracellular physiological solution. […]
The whole cell patch clamp technique on transfected cells allows the study of ion-channels with no—or limited interference from other ion-channels. […] All cells were recorded in the whole cell mode of the patch clamp technique. […]
After the whole cell mode was achieved, test pulses were given for ˜10 minutes to quantify the hERG current in control conditions. […]

Chain of hERG (Q12809 whole entry): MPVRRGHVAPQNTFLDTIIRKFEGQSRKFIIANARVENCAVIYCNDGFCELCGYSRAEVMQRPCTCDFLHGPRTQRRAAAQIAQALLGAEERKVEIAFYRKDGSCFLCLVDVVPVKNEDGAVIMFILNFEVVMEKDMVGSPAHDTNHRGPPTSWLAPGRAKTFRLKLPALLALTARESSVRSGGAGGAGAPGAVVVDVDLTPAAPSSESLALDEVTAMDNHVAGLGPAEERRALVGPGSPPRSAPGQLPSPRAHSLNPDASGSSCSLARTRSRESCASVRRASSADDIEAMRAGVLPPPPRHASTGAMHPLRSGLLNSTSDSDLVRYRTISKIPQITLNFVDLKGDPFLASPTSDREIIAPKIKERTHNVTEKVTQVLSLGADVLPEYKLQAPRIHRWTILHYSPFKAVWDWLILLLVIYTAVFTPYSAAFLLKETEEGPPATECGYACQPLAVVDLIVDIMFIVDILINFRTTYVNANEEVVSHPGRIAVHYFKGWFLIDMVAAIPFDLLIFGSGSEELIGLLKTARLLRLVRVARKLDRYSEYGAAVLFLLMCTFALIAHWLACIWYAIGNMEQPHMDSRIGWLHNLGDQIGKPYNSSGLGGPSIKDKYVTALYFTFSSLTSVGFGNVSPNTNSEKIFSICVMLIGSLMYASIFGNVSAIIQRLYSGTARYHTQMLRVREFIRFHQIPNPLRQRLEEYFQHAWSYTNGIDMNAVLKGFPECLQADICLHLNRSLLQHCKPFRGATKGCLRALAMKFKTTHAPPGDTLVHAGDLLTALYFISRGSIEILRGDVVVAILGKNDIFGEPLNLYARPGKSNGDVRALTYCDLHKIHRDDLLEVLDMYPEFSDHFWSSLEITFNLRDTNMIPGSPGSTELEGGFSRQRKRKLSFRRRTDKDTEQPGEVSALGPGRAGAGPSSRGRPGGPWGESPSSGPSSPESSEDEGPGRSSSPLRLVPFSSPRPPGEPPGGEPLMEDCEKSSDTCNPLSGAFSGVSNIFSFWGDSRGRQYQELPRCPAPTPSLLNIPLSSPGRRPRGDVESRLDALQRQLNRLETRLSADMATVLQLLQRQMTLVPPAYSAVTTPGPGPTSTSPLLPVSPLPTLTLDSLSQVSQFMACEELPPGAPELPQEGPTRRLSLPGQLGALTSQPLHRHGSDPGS

## CCN(C(=O)c1cc(F)ccc1Oc1nncnc1N1CCC2(C1)CN([C@H](CCCNCCOC)C(C)C)C2)C(C)C [Compound 11, (R)-N-ethyl-5-fluoro-N-isopropyl-2-((5-(2-(6-((2-methoxyethyl)amino)-2-methylhexan-3-yl)-2,6-diazaspiro[3.4]octan-6-yl)-1,2,4-triazin-6-yl)oxy)benzamide]
  IC50: > 30.2 µM
